Assay results from publication PMC7175281, “Polyphenolic Compounds from Lespedeza Bicolor Root Bark Inhibit Progression of Human Prostate Cancer Cells via Induction of Apoptosis and Cell Cycle Arrest” (Biomolecules, 2020).
Entries after “also recorded” stand apart in the source; their conditions may differ.

Key:
[1] = test system: PC-3 human prostate cancer cells; experiment: MTT assay, PC-3 cells; format: cell-based; details: for IC50: PC-3 cells, MTT, treated for 48 h; for Selectivity index (MRC-9 vs. PC-3): [IC50 in MRC-9 cells] / [IC50 in PC-3 cells]
Description: (§1) The human prostate cancer cell lines PC-3 [docetaxel-resistant, androgen-independent, AR-FL(-), AR-V7(-)], 22Rv1 [docetaxel-sensitive, androgen-independent, AR-FL(+), AR-V7(+)], and the human non-cancer fibroblast cell line MRC-9 were used. PC-3 and 22Rv1 were purchased from ATCC (Manassas, VA, USA). MRC-9 cells were kindly donated by Prof. Dr. med. Sonja Loges (University Medical Center Hamburg-Eppendorf, Hamburg, Germany). Cells were cultured according to the manufacturers’ protocol in 10% FBS/RPMI (PC-3 and 22Rv1) or 10% FBS/DMEM (MRC-9) medium.
(§2) In vitro drug sensitivity MTT assay was performed as previously described. In total, 6000 cells/well were seeded in 96-well plates, incubated overnight, and treated with the investigated drugs for 48 h.

[2] = test system: CDK1–CDK9 mRNA in PC-3 cells; experiment: qPCR of CDK1-CDK9 mRNA expression; format: cell-based, human; details: 24 h, normalized to GAPDH (Figure 5)
Description: The CDKs gene expression was measured using qPCR technique. PC-3 cells were seeded in Petri dishes (1 × 10^6 cells per ø 6 cm dish in 5 mL) in standard culture media, incubated overnight and treated with the investigated drugs in the fresh culture media for 24 h. Cells were harvested using the cell scraper, washed with PBS and homogenized using QIAshredder (QIAGEN, Hilden, Germany). The total RNA was isolated using PureLink® RNA Mini Kit (Invitrogen, Carlsbad, CA, USA) and the on-column DNA digestion using PureLink™ DNase (Invitrogen). Correspondent RNA (2 µg in 30 µL) and was transcribed into cDNA using Maxima First Strand cDNA Synthesis Kit for RT-qPCR (Thermo Scientific, Vilnius, Lithuania). The following qPCR was performed using 2X KAPA SYBR FAST qPCR Master Mix Optimized for Roche LightCycler 480 (KAPA biosystems, Worburn, MA, USA) according to the manufacturer’s protocol. In total, 20 ng of the template cDNA and 2 pmol of primers were used for each reaction. The PCR conditions were 30 s at 95 °C, followed by 40 cycles of 15 s at 95 °C, 5 s at melting temperature (Tm), and 26 s at 72 °C (fluorescence measurement). Melting curve analysis was performed under the following conditions directly after the PCR run: 10 s at 95 °C, 60 s at 65 °C and 1 s at 97 °C. Relative gene expression was calculated using the 2^-∆∆CT method. The expression of CDKs was normalized to GAPDH gene expression. The analysis was performed using primers, purchased from Eurofins MWG-Biotech AG (Ebersberg, Germany).
Due to the significant alterations of the cell cycle, we further investigated the effects of the isolated compounds on the cyclin-dependent kinases (CDKs). These proteins are known to control proliferation as well as some apoptotic processes. We have examined the expression of mRNAs corresponding to the nine most studied CDKs known to be involved in the cell cycle progression of cancer cells, namely, CDK1–CDK9. […] Remarkably, these effects correlated well with the cytotoxicity of the isolated compounds.
Figure 5 Expression of mRNA correspondent to CDK1-9 in PC-3 cells treated with the isolated compounds 1–8 for 24 h. The target gene expression was normalized to GAPDH gene expression. * p ≤ 0.05 (Student’s t-test).

[3] = test system: MRC-9 human non-cancer fibroblast cells; experiment: MTT assay, MRC-9 non-cancer fibroblasts; format: cell-based; details: treated for 48 h
Description: as §1, §2

PC-3 cells [4] = experiment: Cell cycle progression by flow cytometry (PI staining); format: cell-based, human; details: 24 h (Figure 4)
Description: (§3) The effect of the compounds on apoptosis induction and cell cycle progression was analyzed by flow cytometry technique using PI staining as reported before. Cells (0.2 × 10^6 cells/well) were seeded in six-well plates, incubated overnight, and treated with the investigated drugs for 48 h. The cells were further harvested, fixed with 70% EtOH/H2O, stained with propidium iodide (PI), and analyzed using a FACS Calibur machine (BD Bioscience, San Jose, CA, USA). The results were quantified using BD Bioscience Cell Quest Pro software (v.5.2.1., BD Bioscience).
Next, we examined the effects of the isolated compounds on the cell cycle progression of PC-3 cells. For compounds 1–3, a significant accumulation of the cells in S-phase as well as slight accumulation in G2/M-phase was observed (Figure 4).
Figure 4 Treatment effects on the progression of the cell cycle of PC-3 cells. Cells were treated with the investigated compounds for 24 h. The effects were analyzed by flow cytometry. Cisplatin was used as a positive control. * p ≤ 0.05 (Student’s t-test).

[5] = test system: 22Rv1 human prostate cancer cells; experiment: MTT assay, 22Rv1 cells; format: cell-based; details: treated for 48 h
Description: as §1, §2

PC-3 cells [6] = experiment: DNA fragmentation / apoptosis induction by flow cytometry (PI staining, sub-G1); format: cell-based, human; details: PC-3 cells, 0.5, 1, 5 and 10 µM, 24 h (Figure 3)
Description: as §3
To investigate the mechanism of action contributing to the cytotoxicity in PC-3 cells, we investigated the effects on DNA fragmentation, a well-established marker of cellular apoptosis. Therefore, we evaluated the effects of the isolated compounds at four different concentrations of 0.5 µM, 1 µM, 5 µM, and 10 µM by flow cytometry (Figure 3). […] Therefore, prenylated dimeric flavonoid 8 may either reveal a non-apoptotic character of cell death or a predominantly antiproliferative rather than cytotoxic effect.
Figure 3 Effect of natural compounds on DNA fragmentation of PC-3 cells. Cells were treated with the investigated compounds for 24 h. The effects were analyzed by flow cytometry. Cells detected as sub-G1 population were considered to be apoptotic. Cisplatin (Cis) was used as a positive control. * p ≤ 0.05 (Student’s t-test).

[7] = Homo sapiens, MRC9, MRC-9 cells

COc1cc2c(c(C/C=C(\C)CCC=C(C)C)c1O)O[C@H]1c3ccc(O)cc3OC[C@@H]21 [Compound 7, (6aR,11aR)-8-O-methyl-6a,11a-dihydrolespedezol A2]
IC50 ([1]; Homo sapiens): 14.9 µM
Selectivity index (MRC-9 vs. PC-3) [1]: 1.64
Effect on expression of mRNA corresponding to CDK1-9 [2]: did not exhibit this activity
IC50 [3, 7]: 24.4 µM
Effect on cell cycle progression (PC-3 cells [4]): G1-phase arrest instead of S-phase arrest
IC50 ([5]; Homo sapiens): 30.5 µM

CC(C)=CCC/C(C)=C/Cc1c(O)c(O)cc2c1O[C@H]1c3cc(CC=C(C)C)c(O)cc3OC[C@@H]21 [Compound 3]
IC50 ([1]; Homo sapiens): 2.1 µM
Selectivity index (MRC-9 vs. PC-3) [1]: 7.99
Effect on expression of mRNA corresponding to CDK1-9 [2]: inhibitory effects; also recorded: strongest inhibitory effect
IC50 [3, 7]: 16.8 µM
IC50 ([5]; Homo sapiens): 6.38 µM
Apoptosis induction (DNA fragmentation, sub-G1 population) (PC-3 cells [6]): most pronounced apoptosis-inducing effect

CC(C)=CCC/C(C)=C/Cc1c(O)c(O)cc(C(=O)C(=O)c2ccc(O)cc2O)c1O [Compound 6]
IC50 ([1]; Homo sapiens): 19.3 µM
Selectivity index (MRC-9 vs. PC-3) [1]: >2.6
IC50 [3, 7]: > 50 µM
IC50 ([5]; Homo sapiens): 46.9 µM

CC(C)=CCC/C(C)=C/Cc1c(O)c(O)cc2c1O[C@H]1c3ccc(O)cc3OC[C@@H]21 [Compound 2]
IC50 ([1]; Homo sapiens): 5.24 µM
Selectivity index (MRC-9 vs. PC-3) [1]: 7.17
Effect on expression of mRNA corresponding to CDK1-9 [2]: inhibitory effects; also recorded: fairly active
IC50 [3, 7]: 37.6 µM
IC50 ([5]; Homo sapiens): 13.8 µM

CC(C)=CCC[C@@]1(C)C=Cc2c(c(O)cc3c2O[C@H]2c4ccc(O)cc4OC[C@@H]32)O1 [Compound 5]
IC50 ([1]; Homo sapiens): 15.2 µM
Selectivity index (MRC-9 vs. PC-3) [1]: 1.62
IC50 [3, 7]: 24.6 µM
IC50 ([5]; Homo sapiens): 35.8 µM

CC(C)=CCC[C@]1(C)C=Cc2c(c(O)cc3c2O[C@H]2c4ccc(O)cc4OC[C@@H]32)O1 [Compound 4]
IC50 ([1]; Homo sapiens): 16.4 µM
Selectivity index (MRC-9 vs. PC-3) [1]: 1.66
IC50 [3, 7]: 27.2 µM
IC50 ([5]; Homo sapiens): 29.5 µM

CC(C)=CCC/C(C)=C/Cc1c(O)c(O)cc2c3c(oc12)-c1ccc(O)cc1OC3 [Compound 1]
IC50 ([1]; Homo sapiens): 6.73 µM
Selectivity index (MRC-9 vs. PC-3) [1]: 7.21
Effect on expression of mRNA corresponding to CDK1-9 [2]: inhibitory effects
IC50 [3, 7]: 48.5 µM
IC50 ([5]; Homo sapiens): 20.1 µM

N.N.[Cl][Pt][Cl] [Cisplatin, reference compound]
IC50 [1]: 21 µM
Selectivity index (MRC-9 vs. PC-3) [1]: 0.72
IC50 ([3]; MRC-9 cells): 15.1 µM
IC50 [5]: 4.53 µM

CC(C)=CCC/C(C)=C/Cc1c(O)c(C(=O)c2c(-c3ccc(O)cc3O)oc3c(C/C=C(\C)CCC=C(C)C)c(O)c(O)cc23)cc2c1O[C@H]1c3ccc(O)cc3OC[C@@H]21 [Compound 8, Lespebicolin A]
IC50 ([1]; Homo sapiens): 9.24 µM
Selectivity index (MRC-9 vs. PC-3) [1]: 2.59
Effect on expression of mRNA corresponding to CDK1-9 [2]: did not exhibit any pronounced effect on CDKs mRNA expression
IC50 [3, 7]: 23.9 µM
Effect on cell cycle progression (PC-3 cells [4]): could not induce an S-phase cell cycle arrest
IC50 ([5]; Homo sapiens): 17.5 µM
Apoptosis induction (DNA fragmentation, sub-G1 population) (PC-3 cells [6]): apart from structurally different lespebicolin A (8)
